Test results published in patent US8569324B2, “Potentiator for radiation therapy comprising pyridine derivative as active ingredient” (Taiho Pharmaceutical Co., Ltd., priority 2005, dated 2013).
“And” between values parts separate entries of the source, which are not always exact repeats. Equal entries are not always repeated.

Columns and labels:
[1] = tested on: normal skin; experiment: Test Example 3: effect of irradiation on disorders of normal tissues (normal skin), severity by method of Douglas et al.; type: in vivo, BALB/cA-nu mice; conditions: CDHP 50 mg/kg/day oral 7 days + 20 Gy X-ray on days 1 and 3; 6 animals; radiation alone: grades 1.5 or higher in all 6 after day 14
Procedure: (a) Preparation of test solution: CDHP was suspended in a 0.5% (W/V) HPMC solution at a concentration of 5.0 mg/mL, and the suspension was stirred with a stirrer at room temperature for about 10 minutes and ultrasonicated with ice cooling for about 5 minutes to obtain a drug solution of 50 mg/kg/day as CDHP. (b) Method for X-ray irradiation: Local irradiation was performed on the right femoral region of the mouse using MBR-1505R Type 2 X-ray Irradiation System of Hitachi Medical Corporation under an irradiation condition (irradiation position) so that exposure per mouse should be 20 Gy. To prevent systemic irradiation, mice were placed in a storage box made of lead so that only their right leg should be exposed to radiation. (c) Test: Six to 8-week-old BALB/cA-nu mice were divided into the control group, the radiation alone group, and the drug plus radiation group, each consisting of 6 animals, and drug administration and X-ray irradiation were initiated. […] (d) Determination of severity of skin disorders: From 7 days after the end of the test, severity of skin disorders in the femoral region caused by irradiation was determined by the method of Douglas, et al. (Douglas B G, et al.: The effect of multiple small doses of X-rays on skin reactions in the mice and a basic interpretation. Radiation Res., 66: 401-426, 1976.).

[2] = tested on: human lung cancer strain (LC-11); experiment: Test Example 1: radiotherapy enhancing effect of CDHP on human lung cancer strain LC-11 transplanted into nude mice; type: in vivo, BALB/cA-nu mouse
Procedure: (a) Preparation of test solution: 5-Chloro-2,4-dihydroxypyridine (CDHP) was suspended in a 0.5% (W/V) hydroxypropylmethylcellulose (HPMC) solution at concentrations of 0.25 and 2.5 mg/mL, and the suspension was stirred with a stirrer at room temperature for about 10 minutes and ultrasonicated for about 5 minutes with ice cooling to obtain a drug solution of 2.5 or 25 mg/kg/day as CDHP. (b) Method for Radiation (X-ray) irradiation: Local irradiation was performed on a human tumor strain transplanted into the right femoral region of the mouse using MBR-1505R Type 2 X-ray Irradiation System of Hitachi Medical Corporation under an irradiation condition (irradiation position) so that exposure per mouse should be 2 Gy or 5 Gy. To prevent systemic irradiation, mice were placed in a storage box made of lead so that only their right leg should be exposed to radiation. (c) Test: The human lung cancer strain (LC-11) subcutaneously transplanted into the back of a BALB/cA-nu mouse and grown beforehand were removed, cut into small fragments of about 2×2 mm^2 with scissors in physiological saline, and subcutaneously transplanted into the right femoral region of 5 to 6-week-old mice of the same strain with a transplantation needle. The mice were bred for at least 1 to 2 weeks and divided into the control group, the radiation alone group, the drug alone group, and the drug plus radiation group, so that the tumor volume and standard deviation (S.D.) in each group (n=6 per group) should be as uniform as possible. Then, drug administration and X-ray irradiation were initiated. The drug treatment group was orally administered with 0.1 mL each of the above-described CDHP drug solution per body weight 10 g once daily for 14 consecutive days using a sonde for oral administration. The radiation group was irradiated with 2 Gy or 5 Gy of X-ray within about 1 hour after administration of the CDHP drug solution in the above-described manner on day 1, at the start of the test, and on day 8. Tumor-bearing mice in the control group (non-radiation/non-drug treatment group) and the radiation alone group were orally administered with 0.5% HPMC solution alone in the same manner for 14 consecutive days.
By using the following numerical formula 1, the tumor volume of each mouse in each group was obtained prior to the start of treatment experiment, on days 3, 5, 8 (1 week later) and 11 during the treatment period, and days 15 (2 weeks later), 18, 22 (3 weeks later), 25, and 29 (4 weeks later) after completion of the treatment. A relative tumor volume (RTV) to the tumor volume at the start of the test was obtained for each mouse. […] The mean tumor growth inhibition rate (IR; %) in each treatment group based on the control group was obtained by using the following numerical formula 2 on days 15, at the end of the treatment period, and 29 at 4 weeks later and shown in Table 1.

**Q.** Which results are given for Oc1cc(O)c(Cl)cn1 [CDHP, 5-chloro-2,4-dihydroxypyridine]?
**A.** severity of skin disorders in the femoral region caused by irradiation [1]: mild disorders (redness, swelling) were observed only in 1 or 2 mice; Tumor growth inhibition rate IR(%) Day 15 ([2]; CDHP 2.5 mg/kg oral once daily 14 days + X-ray 2 Gy on days 1 and 8, Day 15): 41%; Tumor growth inhibition rate IR(%) Day 29 ([2]; CDHP 2.5 mg/kg oral once daily 14 days + X-ray 2 Gy on days 1 and 8, Day 29): 25% and 24.7* %; Tumor growth inhibition rate IR(%) Day 15 ([2]; CDHP 2.5 mg/kg oral once daily 14 days, X-ray 0 Gy, Day 15): 17.2%; Tumor growth inhibition rate IR(%) Day 29 ([2]; CDHP 2.5 mg/kg oral once daily 14 days, X-ray 0 Gy, Day 29): −7.9%; Tumor growth inhibition rate IR(%) Day 15 ([2]; CDHP 25 mg/kg oral once daily 14 days + X-ray 2 Gy on days 1 and 8, Day 15): 57% and 57.2%; Tumor growth inhibition rate IR(%) Day 29 ([2]; CDHP 25 mg/kg oral once daily 14 days + X-ray 2 Gy on days 1 and 8, Day 29): 46% and 46.3** %; Tumor growth inhibition rate IR(%) Day 15 ([2]; CDHP 25 mg/kg oral once daily 14 days, X-ray 0 Gy, Day 15): 9.7%; Tumor growth inhibition rate IR(%) Day 29 ([2]; CDHP 25 mg/kg oral once daily 14 days, X-ray 0 Gy, Day 29): −15.3%; enhancement of the effect of X-ray ([2]; CDHP 2.5 and 25 mg/kg with 2-Gy X-ray irradiation in combination): significantly enhanced the effect of X-ray; antitumor effect of drug alone ([2]; CDHP alone, both doses 2.5 and 25 mg/kg): hardly showed any antitumor effect; serious adverse drug reactions (body weight loss, skin disorders) ([2]; mice receiving CDHP and X-ray in combination): no serious adverse drug reactions such as body weight loss and skin disorders were observed
